The text below walks through data of patent US11612604B2, “Methods of treating cancer with PLK4 inhibitors” (LUDWIG INSTITUTE FOR CANCER RESEARCH LTD, priority 2017, dated 2023).

Molecules are shown by their SMILES. Bounds are passed on as bounds.

In the assay the target is T1, PLK4 (Homo sapiens, UniProt O00444).
T1 sequence (O00444 1-970): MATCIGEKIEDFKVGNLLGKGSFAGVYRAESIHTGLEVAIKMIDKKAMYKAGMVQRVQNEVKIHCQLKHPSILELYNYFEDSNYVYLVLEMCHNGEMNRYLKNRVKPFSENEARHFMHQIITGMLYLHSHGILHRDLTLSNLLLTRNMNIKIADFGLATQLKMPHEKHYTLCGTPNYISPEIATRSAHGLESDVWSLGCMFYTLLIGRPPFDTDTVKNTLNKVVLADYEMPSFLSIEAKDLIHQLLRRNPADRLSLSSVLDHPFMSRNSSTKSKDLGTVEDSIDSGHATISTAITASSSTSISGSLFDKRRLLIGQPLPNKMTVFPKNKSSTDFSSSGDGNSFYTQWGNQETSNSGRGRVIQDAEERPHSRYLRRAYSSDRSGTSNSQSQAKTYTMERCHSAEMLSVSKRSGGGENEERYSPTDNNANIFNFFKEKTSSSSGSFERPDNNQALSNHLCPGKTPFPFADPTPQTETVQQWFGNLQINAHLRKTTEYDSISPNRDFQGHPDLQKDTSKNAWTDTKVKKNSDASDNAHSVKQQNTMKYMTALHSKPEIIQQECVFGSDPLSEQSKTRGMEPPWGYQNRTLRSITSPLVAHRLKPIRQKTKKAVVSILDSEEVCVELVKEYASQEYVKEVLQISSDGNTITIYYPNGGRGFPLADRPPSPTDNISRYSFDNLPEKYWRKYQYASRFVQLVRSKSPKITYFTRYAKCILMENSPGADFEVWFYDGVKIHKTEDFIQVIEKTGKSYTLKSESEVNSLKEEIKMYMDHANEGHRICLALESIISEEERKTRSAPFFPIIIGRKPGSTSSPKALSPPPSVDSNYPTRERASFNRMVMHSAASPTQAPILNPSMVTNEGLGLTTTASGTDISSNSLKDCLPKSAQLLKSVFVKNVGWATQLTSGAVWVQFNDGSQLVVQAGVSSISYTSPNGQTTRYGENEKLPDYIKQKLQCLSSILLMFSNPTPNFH
The experiment in a line: Activity (IC50) of the Table 1 compounds as PLK4 inhibitors. To be noted: Table 1, IC50 class. It counts as biochemical.
For `CC(=O)Nc1ccc(Sc2nc(Nc3cc(C)[nH]n3)c(C)c(N(C)C)n2)cc1`, the IC50 is under 100 nM.

On to `CC(=O)Nc1ccc(Sc2nc(Nc3cc(C)[nH]n3)c(C)c(N3CCCCC3)n2)cc1`, for which the IC50 was under 100 nM. `COCCN(C)c1nc(Sc2ccc(NC(C)=O)cc2)nc(Nc2cc(C)[nH]n2)c1C` yielded an IC50 of under 100 nM. To `COCCNc1nc(Sc2ccc(NC(C)=O)cc2)nc(Nc2cc(C)[nH]n2)c1C` belongs under 100 nM; to `COc1c(Nc2cc(C)[nH]n2)nc(Sc2ccc(NC(=O)C3CCCC3)cc2)nc1N1CCOCC1`, under 100 nM. Molecule `COc1c(Nc2cc(C)[nH]n2)nc(Sc2ccc(NC(C)=O)cc2)nc1C1=CCN(C)CC1` came in with an IC50 of under 100 nM. As to `CC(=O)Nc1ccc(Sc2nc(Nc3cc(C)[nH]n3)c3c(n2)C2(CC3)CCN(CCN(C)C)CC2)cc1`, the IC50 was under 100 nM. As for `Cc1cc(Nc2nc(Sc3ccc([N+](=O)[O-])cc3)nc3c2CCC32CCN(CCN(C)C)CC2)n[nH]1`, the figure is under 100 nM. As for `Cc1cc(Nc2nc(Sc3ccc(N)cc3)nc3c2CCC32CCN(CCN(C)C)CC2)n[nH]1`, the figure is under 100 nM; as for `COc1c(Nc2cc(C)[nH]n2)nc(Sc2ccc(NC(C)=O)cc2)nc1N1CCN(CCN2CCCC2)CC1`, under 100 nM.

`CCN(C)CCN1CCN(c2nc(Sc3ccc(NC(C)=O)cc3)nc(Nc3cc(C)[nH]n3)c2OC)CC1` displayed an IC50 of under 100 nM. As for `COc1c(Nc2cc(C)[nH]n2)nc(Sc2ccc(NC(C)=O)cc2)nc1N1CCN(CCN)CC1`, the figure is under 100 nM; as for `CCN(CC)CCN1CCN(c2nc(Sc3ccc(NC(C)=O)cc3)nc(Nc3cc(C)[nH]n3)c2OC)CC1`, under 100 nM. As for `COc1c(Nc2cc(C)[nH]n2)nc(Sc2ccc(NC(C)=O)cc2)nc1N1CCN(CCN2CCNCC2)CC1`, the figure is under 100 nM. With `COc1c(Nc2cc(C)[nH]n2)nc(Sc2ccc(NC(C)=O)cc2)nc1N1CCC(CC(=O)O)CC1`, the IC50 is under 100 nM. To `COc1c(Nc2cc(C)[nH]n2)nc(Sc2ccc(NC(C)=O)cc2)nc1N1CCN(CCN2CCN(C)CC2)CC1` belongs under 100 nM; to `COC(=O)CC1CCN(c2nc(Sc3ccc(NC(C)=O)cc3)nc(Nc3cc(C)[nH]n3)c2OC)CC1`, under 100 nM; to `COc1c(Nc2cc(C)[nH]n2)nc(Sc2ccc(NC(C)=O)cc2)nc1N1CCN(C(N)=O)CC1`, under 100 nM.

Take `COc1c(Nc2cc(C)[nH]n2)nc(Sc2ccc(NC(C)=O)cc2)nc1N1CCN(CC(=O)O)CC1`: the concentration for half-maximal inhibition (IC50) was under 100 nM.

Molecule `COc1c(Nc2cc(C)[nH]n2)nc(Sc2ccc(NC(C)=O)cc2)nc1N1CC2CCC(C1)N2CCN(C)C` yielded an IC50 of under 100 nM. As for `COc1c(Nc2cc(C)[nH]n2)nc(Sc2ccc(NC(C)=O)cc2)nc1N1CCC(CC(N)=O)CC1`, the figure is under 100 nM; as for `COc1c(Nc2cc(C)[nH]n2)nc(Sc2ccc(NC(C)=O)cc2)nc1N1CCN(C(=N)NO)CC1`, under 100 nM; as for `COc1c(Nc2cc(C)[nH]n2)nc(Sc2ccc(NC(C)=O)cc2)nc1N1CCN(CCN(C)OC)CC1`, under 100 nM. For the molecule `COc1c(Nc2cc(C)[nH]n2)nc(Sc2ccc(NC(C)=O)cc2)nc1N1CCN(CCNC(N)=O)CC1`, the IC50 is under 100 nM. Molecule `COc1c(Nc2cc(C)[nH]n2)nc(Sc2ccc(NC(C)=O)cc2)nc1N1CC(C)N(CCN(C)C)C(C)C1` (stereo not drawn) had an IC50 of under 100 nM. To `COc1c(Nc2cc(C)[nH]n2)nc(Sc2ccc(NC(C)=O)cc2)nc1N1CCN(C(=N)N)CC1` belongs under 100 nM.

The molecule `COC(=O)CN1CCN(c2nc(Sc3ccc(NC(C)=O)cc3)nc(Nc3cc(C)[nH]n3)c2OC)CC1` came in with an IC50 of under 100 nM.

The molecule `COc1c(Nc2cc(C)[nH]n2)nc(Sc2ccc(NC(C)=O)cc2)nc1N1CCN(CCN2CCCCCC2)CC1` showed an IC50 of under 100 nM. As for `COc1c(Nc2cc(C)[nH]n2)nc(Sc2ccc(NC(C)=O)cc2)nc1N1CCN(CCNC(=N)N)CC1`, the figure is under 100 nM.

Turning to `COC(=O)c1ccc(Sc2nc(Nc3cc(C)[nH]n3)c(OC)c(N3CCN(CCN(C)C)CC3)n2)cc1`, the IC50 was under 100 nM. As for `COc1c(Nc2cc(C)[nH]n2)nc(Sc2ccc(NC(C)=O)cc2)nc1C1CCN(CCN(C)C)CC1`, the figure is 100 to 1000 nM; as for `COc1c(Nc2cc(C)[nH]n2)nc(Sc2ccc(NC(C)=O)cc2)nc1N1CCC(CC(=O)N(C)C)CC1`, under 100 nM.

`COc1c(Nc2cc(C)[nH]n2)nc(Sc2ccc(NC(C)=O)cc2)nc1N1CCN(CC(=O)N2CCCCC2)CC1` yielded an IC50 of under 100 nM. Molecule `COc1c(Nc2cc(C)[nH]n2)nc(Sc2ccc(NC(C)=O)cc2)nc1N1CC2CCC(C1)N2CCN1CCN(C)CC1` showed an IC50 of under 100 nM. As for `COc1c(Nc2cc(C)[nH]n2)nc(Sc2ccc(NC(C)=O)cc2)nc1N1CCN(CCN(C)C)CC1`, the IC50 is under 100 nM.

For the molecule `COc1c(Nc2cc(C)[nH]n2)nc(Sc2ccc(C(=O)N(C)C)cc2)nc1N1CCN(CCN(C)C)CC1`, the 50% inhibitory concentration (IC50) is under 100 nM. To `COc1c(Nc2cc(C)[nH]n2)nc(Sc2ccc(S(C)(=O)=O)cc2)nc1N1CCN(CCN(C)C)CC1` belongs under 100 nM. Take `CNC(=O)c1ccc(Sc2nc(Nc3cc(C)[nH]n3)c(OC)c(N3CCN(CCN(C)C)CC3)n2)cc1`: the half-inhibitory concentration (IC50) is under 100 nM.

Molecule `COc1c(Nc2cc(C)[nH]n2)nc(Sc2ccc(NC(C)=O)cc2)nc1N1CCN(CCN(C)Cc2ccccc2)CC1` yielded an IC50 of under 100 nM.

In the case of `COc1c(Nc2cc(C)[nH]n2)nc(Sc2ccc(NC(C)=O)cc2)nc1N1CCN(CCN(C)c2ccccc2)CC1`, the IC50 was under 100 nM. Take `COc1c(Nc2cc(C)[nH]n2)nc(Sc2ccc(NC(C)=O)cc2)nc1N1CCN(CCN2C3CCCC2CC3)CC1`: the IC50 is under 100 nM. For the molecule `COc1c(Nc2cc(C)[nH]n2)nc(Sc2ccc([S+](C)[O-])cc2)nc1N1CCN(CCN(C)C)CC1` (stereo not drawn), the IC50 is under 100 nM. To `COc1c(Nc2cc(C)[nH]n2)nc(Sc2ccc(NC(C)=O)cc2)nc1N1CC2CCC(C1)N2CCN1CCCCCCC1` belongs under 100 nM; to `COc1c(Nc2cc(C)[nH]n2)nc(Sc2ccc(NC(C)=O)cc2)nc1N1CCN(CCS(C)(=O)=O)CC1`, under 100 nM; to `COc1c(Nc2cc(C)[nH]n2)nc(Sc2ccc(NC(C)=O)cc2)nc1N1CCN(CCN2C3CCCC2CCC3)CC1`, under 100 nM.

The molecule `COc1c(Nc2ncc(C)s2)nc(Sc2ccc(NC(C)=O)cc2)nc1N1CCN(CCN(C)C)CC1` returned an IC50 of under 100 nM.

Regarding `CC(=O)Nc1ccc(Sc2nc(Nc3cc(C)[nH]n3)c(C)c(C3CCN(CCN(C)C)CC3)n2)cc1`, the IC50 is under 100 nM. As for `COc1c(Nc2cc(C)[nH]n2)nc(Sc2ccc(S(C)(=O)=O)cc2)nc1N1CCN(CCN2CCN(C)CC2)CC1`, the figure is under 100 nM. As for `COc1c(Nc2cc(C)[nH]n2)nc(Sc2ccc(NS(C)(=O)=O)cc2)nc1N1CCN(CCN(C)C)CC1`, the figure is under 100 nM; as for `CCS(=O)(=O)c1ccc(Sc2nc(Nc3cc(C)[nH]n3)c(OC)c(N3CCN(CCN(C)C)CC3)n2)cc1`, under 100 nM.

Regarding `COc1c(Nc2cc(C)[nH]n2)nc(Sc2ccc(S(=O)(=O)C(F)(F)F)cc2)nc1N1CCN(CCN(C)C)CC1`, the IC50 is under 100 nM.

Take `COc1c(Nc2cc(C)[nH]n2)nc(Sc2ccc(S(=O)(=O)N(C)C)cc2)nc1N1CCN(CCN(C)C)CC1`: the IC50 was under 100 nM. As for `COc1c(Nc2cc(C)[nH]n2)nc(Sc2ccc(S(=O)(=O)Cc3ccccc3)cc2)nc1N1CCN(CCN(C)C)CC1`, the figure is under 100 nM. As for `COc1c(Nc2cc(C)[nH]n2)nc(Sc2ccc(S(=O)(=O)COCc3ccccc3)cc2)nc1N1CCN(CCN(C)C)CC1`, the figure is under 100 nM.
